Reference: patent US9708628B2, “Cationic lipid having improved intracellular kinetics” (NOF CORPORATION, priority 2011, dated 2017)

Assays:
HT1080 cells [1] = assay: Inhibitory effect of GA (ginkgolic acid) on gene expression; assay type: cell-based; conditions: 0, 25, 50, 100 μM GA
Procedure: MENDs of B-2-4 (Example 4), B-2 (Example 1) were prepared according to [Experimental Example 16], [Experimental Example 1] (1), (2). For the preparation, PEG2000-DMG was used as PEG lipid, and MEND solutions corresponding to 0.55 mM of the lipid concentration were prepared.
(§1) HT1080 cells were plated on a 3.5 cm cell culture dish at 4×10^4 cells/2 mL/dish 24 hr before, various MENDs were diluted with DMEM (FBS 10%+, Phenol red free) containing a final concentration of 200 μM of D-luciferin potassium and 0, 25, 50, 100 μM of GA (Calbiochem) to achieve 1.6 μg/2 mL/dish based on the pDNA amount and transfection was performed. According to the Kronos Dio package insert, the luminescence amount was measured for 2 min every 20 min and taken as the luciferase activity (RLU/2 min).

[2] = Electron microscope observation by staining method; assay type: physicochemical; conditions: phosphotungstic acid staining
Procedure: MENDs of B-2 (Example 1) and B-2-4 (Example 4) were prepared according to [Experimental Example 1] (1), (2) and [Experimental Example 15]. For the preparation, PEG2000-DMG was used as PEG lipid, and MEND solutions corresponding to 1.38 mM of the lipid concentration were prepared. A 50% sucrose solution (pH 5.3) (5 mL) was added to a centrifugation tube, on which a 10% sucrose solution (pH 5.3) (5 mL) was layered, and a MEND solution (1.5 mL) was further overlaid to form an discontinuous density gradient. Purification was performed by ultracentrifugation (110000 g, 2 h, 25° C.) (Optima™ L-90K Ultracentrifuge, Sw41Ti, BECKMAN). The interface (4 ml) of sucrose density 10% and 50% was recovered, and sucrose was removed by ultrafiltration (1000 g, 3 min, 25° C.) to give a sample solution. A 2-fold diluted sample solution was adsorbed to a 400 mesh carbon film TEM grid, which was absorbed by a filter paper. A 2% phosphotungstic acid solution (pH 7.0) was added and the mixture was stood for 10 seconds. For observation, a transmission electron microscope (JEM-1200EX, JEOL Ltd.) was used. Accelerating voltage was set to 80 kV, and images were taken by a CCD camera (VELETA, JEOL Ltd.).

HT1080 cells [3] = assay: Decapsulation efficiency over time (3, 6, 9, 12 hr); assay type: cell-based; conditions: 3, 6, 9, 12 hr after transfection
Excerpt: For MEND preparation, Rhodamine-labeled pDNA prepared by the method of [Experimental Example 1] (4) was used. For preparation of MEND encapsulating the rhodamine-labeled pDNA, 50% of the pDNA solution described in [Experimental Example 1] (1) was replaced by the rhodamine-labeled pDNA. In addition, the lipid constituting the MEND was labeled with fluorescence by the method described in [Experimental Example 1] (3). MENDs having a composition of B-2-4 […]:DOPE:Chol=3:3:4, B-2 […]:SOPE:Chol=5:3:2 were prepared by the method described in [Experimental Example 1] (2). For the preparation, PEG2000-DMG was used as PEG lipid, and MEND solutions corresponding to 0.55 mM of the lipid concentration were prepared.
HT1080 cells were plated on a glass bottom dish at 5×10^4 cells/2 mL/dish 24 hr before. MEND was diluted with DMEM (FBS 10%+) to achieve pDNA 1.6 μg/2 mL and transfected into cells. 3, 6, 9, 12 hr later, the cells were washed twice with heparin solution (20 units/mL, 2 mL), Krebs buffer (1 mL) was added, and the images at 3, 6, 9, 12 hr after the transfection were obtained by a confocal laser scan microscope.
Rhodamine-labeled pDNA and lipid membrane of MEND were shown in pseudo colors of red and green, respectively. The decapsulation efficiency was calculated according to the following formula.

HT1080 cells [4] = assay: Time-course evaluation of gene expression using Kronos Dio (luciferase, RLU/2 min); assay type: cell-based; conditions: pDNA 1.6 μg/2 mL/dish
Procedure: MENDs of B-2-4 (Example 4), B-2 (Example 1) were prepared according to [Experimental Example 1] (1), (2), and [Experimental Example 18]. For the preparation, PEG2000-DMG was used as PEG lipid, and MEND solutions corresponding to 0.55 mM of the lipid concentration were prepared. For cationic MEND, lipids having a composition of DOTAP (Comparative Example 3):DOPE:Chol:=3:4:3 were used, and the cationic MEND was prepared according to the method described in [Experimental Example 1] (3).
as §1, with “(FES” for “(FBS”, “potassium” for “potassium and 0, 25, 50, 100 μM of GA (Calbiochem)”

HT1080 cells [5] = assay: Influence of endosomal acidification inhibitor BafA1 (Kronos Dio); assay type: cell-based; conditions: 0.5 μM BafA1
Procedure: MENDs of B-2-4 (Example 4), B-2 (Example 1) were prepared according to [Experimental Example 1] (1), (2), [Experimental Example […]]. For the preparation, PEG2000-DMG was used as PEG lipid, and MEND solutions corresponding to 0.55 mM of the lipid concentration were prepared.
HT1080 cells were plated on a 3.5 cm cell culture dish at 4×10^4 cells/2 mL/dish 24 hr before. The medium was changed to DMEM (FBS 10%+) containing 0.5 μM BafA1 (Bafilomycin A1) 30 min before transfection. 30 min later, various MENDs were added to the dish at 1.6 μg/2 mL/dish based on the pDNA amount. 3 hr after the transfection, the medium was changed to DMEM (FBS 10%+, Phenol red free) containing a final concentration 200 μM of D-luciferin potassium. According to the Kronos Dio package insert, the luminescence amount was measured for 2 min every 20 min and taken as the luciferase activity (RLU/2 min).

Compound	inhibitory effect of GA on gene expression activity (HT1080 cells [1])	structure of MEND by transmission electron microscope [2]	decapsulation efficiency (HT1080 cells [3])	gene expression activity (luciferase, RLU/2 min), time course (HT1080 cells [4])	activity under endosomal acidification inhibition using BafA1 (HT1080 cells [5])
CC1=C(/C=C/C(C)=C/C=C/C(C)=C/C(=O)OCCCN(C)CCSSCCN(C)CCCOC(=O)/C=C(C)/C=C/C=C(C)/C=C/C2=C(C)CCCC2(C)C)C(C)(C)CCC1 [Example B-2-4]	higher inhibitory effect on B-2-4 than on B-2	structure coated with a monolayer lipid membrane	gradual decapsulation with the passage of time	significantly higher than that of MENDs formed from B-2-1 and DOTAP	inhibited
CCCCCCCCCCCCCC(=O)OCCCN(C)CCSSCCN(C)CCCOC(=O)CCCCCCCCCCCCC [Example B-2]	higher inhibitory effect on B-2-4 than on B-2	structure coated with a monolayer lipid membrane	good decapsulation from early stages	equivalent to that of DOTAP	inhibited
